Source: patent publication US20120135451A1, “Method and Apparatus for Evaluation of Toxicity” (BIOPHOS SA, priority 2009, published 2012)
Like-named read-outs stand apart in the source and are kept apart here.

Tested on: boar spermatozoa
Assay: Toxicity evaluation by motility of boar spermatozoa (Qualisperm)
Type: cell-based
Conditions: 30 minutes incubation, around 60 million/ml boar spermatozoa
Protocol: Quadruple samples of each test compound were prepared in varying concentrations by serial dilution in a 96 microwell-plate by serial dilution into XCell with DMSO. Equal volumes (50 μl) of boar spermatozoa in a concentration of around 60 million/ml were added to all sample solutions. Subsequently, the microwell plate was shaken and incubated for 30 minutes. The dosing was performed by using an automated TECAN® robot. After the incubation the sample solutions were pipetted on a Leja® slide and the motility of the spermatozoa was analysed using a Qualisperm® apparatus from Biophos AG. A dose response curve was obtained where % motile spermatozoa (all the moving spermatozoa), % progressive spermatozoa (share of spermatozoa above a pre-determined threshold, here: above 25 μm/sec), or mean speed of total motile spermatozoa was plotted as a function of the logarithmic concentration of the test compound expressed in mM. From the dose curve IC50 values were calculated.

## CC(C)C(=O)Nc1ccc([N+](=O)[O-])c(C(F)(F)F)c1 [Flutamide]
0.5 h, % motile spermatozoa (all moving spermatozoa), read-out: IC50 % motille
  IC50: 95 µM
0.5 h, % progressive spermatozoa (above 25 μm/sec), read-out: IC50 % progressiv
  IC50: 62 µM
0.5 h, mean speed of total motile spermatozoa, read-out: IC50 mean speed
  IC50: 72 µM

## CC(=O)N1CCN(c2ccc(OCC3COC(Cn4ccnc4)(c4ccc(Cl)cc4Cl)O3)cc2)CC1 (stereo not drawn) [Ketokonazole, Ketoconazole]
% motile spermatozoa (all moving spermatozoa), read-out: IC50 % motille
  IC50: 209 µM
% progressive spermatozoa (above 25 μm/sec), read-out: IC50 % progressiv
  IC50: 205 µM
Mean speed of total motile spermatozoa, read-out: IC50 mean speed
  IC50: 197 µM
